From US20070167353A1, “PRODRUG COMPOSITION” (priority 2003, published 2007) come the findings set out here.

Data set [1] concerns the target T1, human dipeptide transporter, hPept1 (Homo sapiens, UniProt P46059).
T1 sequence (P46059 1-708): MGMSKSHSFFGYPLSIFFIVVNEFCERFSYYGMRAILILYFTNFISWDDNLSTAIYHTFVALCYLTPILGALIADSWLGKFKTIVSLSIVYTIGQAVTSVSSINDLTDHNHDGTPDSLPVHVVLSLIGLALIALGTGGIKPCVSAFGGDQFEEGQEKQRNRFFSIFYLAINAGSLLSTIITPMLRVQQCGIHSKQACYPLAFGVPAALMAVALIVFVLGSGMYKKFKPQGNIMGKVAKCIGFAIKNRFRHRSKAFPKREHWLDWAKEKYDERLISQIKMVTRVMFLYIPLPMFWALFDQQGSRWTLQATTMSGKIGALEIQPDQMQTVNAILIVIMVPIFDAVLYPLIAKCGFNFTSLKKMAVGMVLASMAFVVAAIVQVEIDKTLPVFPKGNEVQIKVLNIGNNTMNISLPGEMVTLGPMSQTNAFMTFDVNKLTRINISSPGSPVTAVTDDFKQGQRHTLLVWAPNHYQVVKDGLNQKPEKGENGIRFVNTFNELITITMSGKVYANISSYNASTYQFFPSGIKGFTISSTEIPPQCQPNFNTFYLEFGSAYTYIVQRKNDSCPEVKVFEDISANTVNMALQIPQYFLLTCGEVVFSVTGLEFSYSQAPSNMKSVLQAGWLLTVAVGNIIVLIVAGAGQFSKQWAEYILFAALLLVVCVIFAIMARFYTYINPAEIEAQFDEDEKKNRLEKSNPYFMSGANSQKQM
The conditions noted are these: for HeLa/hPEPT1 uptake: pH 6.

In data set [2] the test system is KB cell. The experiment in a line: KB cell cytotoxicity. The conditions noted are these: read-out: KB cell cytotoxicity (IC50).
Another data set has as its system vaccinia virus. Description: microbe, parasite or virus in culture. The conditions noted are these: read-out: Vaccinia Plaque Reduction (IC50). In kind it is cell-based.
For data set [3] the following is noted: Caco-2 cell homogenates, n = 3.
The next data set concerns Caco-2 monolayers. Description: Caco-2 monolayer transport and stability. In kind it is in vitro ADME. The note with it: for Permeability: apical to basolateral, 0.2 mM drug, apical pH 6.0, n = 3; for Stability (% remaining) Apical chamber (donor): percent prodrug remaining in donor solution at 120 minutes; for Stability (% remaining) Basolateral chamber (receiver): percent prodrug remaining in receiver solution at 120 minutes. As to the method:
(§1) The transepithelial transport of Ara A, 5′-O-L-valyl Ara A, 5′-O-L-isoleucyl Ara A is tested in Caco-2 monolayers grown in transwell filters following standard procedures as described in detail in Landowski, C. P. et al., Pharm Res, 2005. 22(9): p. 1510-8. In these experiments, transport studies are performed 21 days post-seeding. The assay is initiated by adding drug transport solution (0.2 mM drug in MES buffer, pH 6.0 containing 5 mM D-glucose, 5 mM MES, 1 mM CaCl2, 1 mM MgCl2, 150 mM NaCl, 3 mM KCl, 1 mM NaH2PO4) to the apical chamber of the Caco-2 insert. Two hundred microliter aliquots are withdrawn from the basolateral chamber at predetermined intervals and replaced with fresh HEPES pH 7.4 buffer. The epithelial integrity of representative cell monolayers is assessed by monitoring transepithelial resistance. In these assays, the stability of the drug in both chambers of the insert is also monitored. […] Importantly, the prodrugs are stable, showing minimal metabolism to Ara A and Ara-H over a 2-hour time frame.

A short description of data set [4]: Intestinal absorption after direct duodenal injection in anesthetized rats, plasma by LC/MS/MS. The note with it: for AUC0-4 hr of Prodrug: rat plasma, duodenal injection of the named prodrug. As to the method:
The systemic plasma profiles of the prodrug, Ara A, and its main metabolite, Ara H are then monitored by removing plasma from a jugular vein cannula over a 4 hour period and assaying by LC/MS/MS assay.
Animals were dosed with Ara A at a level of 1.5 mg/rat via direct duodenal injection into anesthetized rats (n=2 per compound). Plasma samples were taken from the jugular vein at 0, 1, 2, and 4 hours from the jugular vein and were assayed for Ara A (▪), and Ara H (♦) by LC/MS/MS.
Animals were dosed with 5′-O-L isoleucyl Ara A prodrug at a level of 2.7 mg/rat via direct duodenal injection into anesthetized rats (n=3 per compound). Plasma samples were taken from the jugular vein at 0, 0.5, 1, 2, and 4 hours from the jugular vein and were assayed for prodrug (□), Ara A (▪), and Ara H (♦) by LC/MS/MS.
FIG. 6 is a graph showing mean plasma profiles of Ara A, Ara H, and 5′-O-D Isoleucyl Ara A after administration of 5′-O-D Isoleucyl Ara A into the duodenum of a rat. Animals were dosed with 5′-O-D Isoleucyl Ara A prodrug at a level of 2.7 mg/rat via direct duodenal injection into anesthetized rats (n=2). Plasma samples were taken from the jugular vein at 0, 0.5, 1, 2, and 4 hours from the jugular vein and were assayed for prodrug (□), Ara A (▪), and Ara H (♦) by LC/MS/MS.
FIG. 7 is a graph showing mean plasma profiles of Ara A, Ara H, and 5′-O-L Valyl Ara A after administration of 5′-O-L Valyl Ara A into the duodenum of a rat. Animals were dosed with 5′-O-L Valyl Ara A prodrug at a level of 3 mg/rat via direct duodenal injection into anesthetized rats (n=2). Plasma samples were taken from the jugular vein at 0, 0.5, 1, 2, and 4 hours from the jugular vein and were assayed for prodrug (□), Ara A (▪), and Ara H (♦) by LC/MS/MS.
FIG. 8 is a graph showing mean plasma profiles of Ara A, Ara H, and 5′-O-D Valyl Ara A after administration of 5′-O-D Valyl Ara A into the duodenum of a rat. Animals were dosed with 5′-O-D Valyl Ara A prodrug at a level of 3.0 mg/rat via direct duodenal injection into anesthetized rats (n=3). Plasma samples were taken from the jugular vein at 0, 0.5, 1, 2, and 4 hours from the jugular vein and were assayed for prodrug (□), Ara A (▪), and ara H (♦) by LC/MS/MS.
FIG. 9 is a graph showing mean plasma profiles of Ara A, Ara H, and 5′-O-Glycyl Ara A after administration of 5′-O-Glycyl Ara A into the duodenum of a rat. Animals were dosed with 5′-O-Glycyl Ara A prodrug at a level of 3.0 mg/rat via direct duodenal injection into anesthetized rats (n=2). Plasma samples were taken from the jugular vein at 0, 0.5, 1, 2, and 4 hours from the jugular vein and were assayed for prodrug (□), Ara A (▪), and Ara H (♦) by LC/MS/MS.

Data set [5] concerns KB cell.
The conditions of data set [6]: buffer.
Data set [7] can be described thus: Solubility testing in water. The format is physicochemical. The note with it: thermodynamic from solid; water added dropwise to 5 mg. As to the method: Water is added dropwise to 5 mg of each prodrug with intermittent stirring until the drug is fully dissolved. All of the Ara A prodrugs dissolved prior to the addition of 0.19 ml of water or at a concentration>26 mg/ml water. In contrast, unmodified Ara A is poorly soluble (<0.5 mg/ml) under these conditions.

The nature of data set [8]: Caco-2 monolayer transport and stability. The conditions noted are these: human, Caco-2, pH 6. The format is in vitro ADME. Here is the method: as §1
(In general: Caco-2 monolayers are a common model of the intestinal barrier.)

The next data set is described as follows: KB cell cytotoxicity. The conditions noted are these: human, KB cells.
The subject of another data set is adenosine deaminase. The experiment in a line: Stability in the presence of adenosine deaminase. In kind it is biochemical. The note with it: FIG. 3A.
The test system of a further data set is Cowpox. Description: organism not typed. In kind it is cell-based. The note with it: read-out: Cowpox Plaque Reduction (IC50).
The mark [9] stands for this setting: Orthopoxvirus vaccinia, HFF, 72 h.

Where two headings read alike, the source gives them in different places. A value given as a limit tells only on which side of the number the result lay.

In the case of `Nc1ncnc2c1ncn2[C@@H]1O[C@H](COC(=O)[C@@H](N)CC(=O)O)[C@@H](O)[C@@H]1O` [5′-O-L-aspartyl Ara A], the hPepT1/Control in data set [1] is reported as 1.27. This compound also displayed a HeLa/hPEPT1 uptake in [1] of 5.0 ± 0.2. The IC50 in the data set on KB cell [2] came out at 60 µM; with vaccinia virus (HFF cells, 3 days), 7 µM.
As to `CC[C@H](C)[C@H](N)C(=O)OC[C@H]1O[C@@H](n2cnc3c(N)ncnc32)[C@@H](O)[C@@H]1O` [5′-O-L-isoleucyl Ara A], the “t1/2 Caco-2” value in data set [3] was determined as 27.0 ± 1.3 min. For the same compound, in the data set with Caco-2 monolayers, the Permeability is given as 5.66 ± 0.14 ×10^−6, cm/s; the “Stability (% remaining) Apical chamber (donor)” value worked out at 89.6%; the “Stability (% remaining) Basolateral chamber (receiver)” value turned out to be 77.5%. In data set [1], this compound had a hPepT1/Control of 26.9 and a HeLa/hPEPT1 uptake of 202.0 ± 4.8. Further, in the data set on KB cell [2], the IC50 is > 100 µM. Besides, the “AUC0-4 hr of Prodrug” value in [4] worked out at 658 ± 314 ng·h/mL. In addition, in data set [4] (rat, duodenal injection), the “fold increase in circulating Ara A levels over dosing with Ara A” value is > 20 fold. For the same compound, in data set [4] (rat, in vivo), the “percent of total drug measured in plasma found to be Ara-H” value is on record as ~15%, the “percent of total drug measured in plasma present as Ara A” value is recorded as “approximately 17%” and the “percent of total drug measured in plasma present as prodrug” value was ~68%. Moreover, the IC50 with vaccinia virus (HFF cells, 3 days) was 4.5 µM.
`Nc1ncnc2c1ncn2[C@@H]1O[C@H](COC(=O)[C@@H](N)Cc2ccccc2)[C@@H](O)[C@@H]1O` [5′-O-L-phenylalanyl Ara A]: the “t1/2 Caco-2” value in data set [3] was 3.5 ± 1.0 min. The IC50 is > 100 µM in the data set with KB cell [5] and 20 µM with vaccinia virus (HFF cells, 3 days). In addition, in data set [6], the “t1/2 pH 7.4” value amounted to 420.9 ± 40.1 min.
For `Nc1ncnc2c1ncn2[C@@H]1O[C@H](COC(=O)[C@@H]2CCCN2)[C@@H](O)[C@@H]1O` [5′-O-L-prolyl Ara A], the “t1/2 Caco-2” value in [3] turned out to be 1.3 ± 0.005 min. In data set [1], this compound returned a hPepT1/Control of 1.06 and a HeLa/hPEPT1 uptake of 40.8 ± 1.0. In the data set on KB cell [5], this compound had an IC50 of 45 µM. Besides, the “t1/2 pH 7.4” value in [6] was found to be 20.1 ± 1.0 min. The IC50 with vaccinia virus (HFF cells, 3 days) came out at 12 µM.
Consider `CC(C)[C@H](N)C(=O)OC[C@H]1O[C@@H](n2cnc3c(N)ncnc32)[C@@H](O)[C@@H]1O` [5′-O-L-valyl Ara A], for which, in data set [3], the “t1/2 Caco-2” value amounted to 11.1 ± 0.4 min. In addition, in the data set on Caco-2 monolayers, the Permeability is 3.86 ± 0.03 ×10^−6, cm/s; the “Stability (% remaining) Apical chamber (donor)” value is 82.1%; the “Stability (% remaining) Basolateral chamber (receiver)” value is 62.0%. In data set [1], the hPepT1/Control was 20.7 and the HeLa/hPEPT1 uptake was determined as 80.3 ± 1.1. The IC50 with KB cell [2] worked out at 65 µM. Besides, the “AUC0-4 hr of Prodrug” value in data set [4] was 195 ± 25 ng·h/mL. For the same compound, the “plasma Ara A levels after dosing (in words)” value in [4] (rat, duodenal injection) is “Increased levels of plasma Ara A”. For the same compound, the IC50 in the data set with vaccinia virus (HFF cells, 3 days) was found to be 12 µM.
As to `Nc1ncnc2c1ncn2[C@@H]1O[C@H](CO)[C@@H](O)[C@@H]1O` [Ara A, Adenine 9-beta-D-arabinofuranoside, reference compound], the solubility in [7] was < 500 µg/mL. In addition, the Papp A→B at 2 h, 0.2 mM in [8] is 1.42 ± 0.05 ×10⁻⁶ cm/s. Further, the IC50 in “KB cell cytotoxicity” was > 100 µM; in the data set with Cowpox, 6.5 µM; with vaccinia virus (setting [9]) it was 5 µM. The “deamination by adenosine deaminase (in words)” value in the data set on adenosine deaminase was “rapidly hydrolyzed”.
`O=c1[nH]cnc2c1ncn2[C@@H]1O[C@H](CO)[C@@H](O)[C@@H]1O` [Ara-H, 9-(beta-D-arabinofuranosyl) hypoxanthine]: the IC50 with Cowpox was > 100 µM.
`Nc1ccn(C[C@@H](CO)OCP(=O)(O)O)c(=O)n1` [Cidofovir, reference compound]: the IC50 in the data set “KB cell cytotoxicity” is > 100 µM; in the data set on Cowpox, 30 µM; with vaccinia virus (setting [9]) it was 26 µM.

As a reminder, the IC50 is the midpoint of a concentration-inhibition curve. For orientation: solubility means how much of the substance goes into solution per volume. As a reminder, the Papp A→B is the apparent permeability from the apical to the basolateral side of a cell layer. The low end stands for slow passage, the high end for fast passage.
